The results in this text go back to patent US20060247421A1, “Liver x receptor alpha splicing mutant protein, gene thereof and utilization of the same” (priority 2003, published 2006).

The subject of the assay is liver X receptor α splicing mutant proteins (D5, 5A and 6A). As to the kind of experiment: Reporter assay in a transient expression system in HEK293 cells (TATA-LXREx4-luciferase), ligand-dependent transcription activating ability. The format is cell-based, human. As to conditions: three kinds of liver X receptor α splicing mutant proteins. The procedure: FIG. 5 is a view showing the results of assessment of the function of liver X receptor α splicing mutant proteins (D5, 5A and 6A) by a reporter assay in a transient expression system in HEK293 cells. […] A non-treated section is represented by white, a 1 μg/ml 22R-hydroxycholesterol-treated section is represented by black, and a 1 μg/ml 25-hydroxycholesterol-treated section is represented by gray. In addition, in each test section, 1 μM 9-cis retinoic acid is contained. Letting a value of luciferase activity in a control section (control) in which only a solvent was added to be 100%, a value of luciferase activity in each test section is shown as a relative value. WT means a normal liver X receptor α.
A human fetal kidney-derived HEK293 cell strain (ATCC; CRL-1573) was subcultured in a Dulbecco modified Eagle medium (DMEM) containing 10% bovine fetal serum (FBS) from which low-molecular substances had been removed with charcoal dextran, and penicillin (100 unit/ml) and streptomycin ([…]) as an antibiotic, and not containing phenol red at 37° C. under the presence of 5% CO2. The subcultured HEK293 cell strain was seeded on a 10 cm cell culturing dish to about 2×10^6 cells. […]

On to `CC(C)CC[C@@H](O)[C@@H](C)[C@H]1CC[C@H]2[C@@H]3CC=C4C[C@@H](O)CC[C@]4(C)[C@H]3CC[C@]12C` [22R-oxycholesterol], for which the “transcription activating ability depending on ligand, as compared with that of a normal liver X receptor α” value is on record as “extremely weak or not recognized level”.
